The values that follow come from the supplement of paper PMC9265050, “Inhibition of RNA Binding in SND1 Increases the Levels of miR-1-3p and Sensitizes Cancer Cells to Navitoclax” (Cancers, 2022).

The test system of this assay is SW480. The experiment in a line: drug sensitivity score (DSS, integrated dose-response area); higher = more sensitive (stronger viability reduction); extreme values may be limits of the assay. Summed up: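 The drug sensitivity score is the integrated area under a fitted non-linear dose–response model. It was derived from SW480 cells with doxycycline-inducible control or SND1-targeting shRNA, induced with 0.1 µg/mL doxycycline for 7 days and plated at 1000 cells per well on 384-well plates of 525 commercially available small-molecule inhibitors at five concentrations. CellTiter-Glo measured viability after 72 h.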

Where [1] appears, read: shRNA: SND1 shRNA1 (SND1 silenced).
The mark [2] stands for this setting: shRNA: SND1 shRNA2 (SND1 silenced).
[3] abbreviates: shRNA: control shRNA (non-targeting).

Regarding `CCNC(=O)c1noc(-c2cc(C(C)C)c(O)cc2O)c1-c1ccc(CN2CCOCC2)cc1` [Luminespib], the drug sensitivity score was 15.3 DSS under setting [1], 15.4 DSS under setting [2] and 15.7 DSS under setting [3].
On to `CCc1cnn2c(NCc3ccc[n+]([O-])c3)cc(N3CCCC[C@H]3CCO)nc12` [Dinaciclib], for which the drug sensitivity score under setting [1] was 18.1 DSS, the drug sensitivity score under setting [2] stood at 15.8 DSS and the drug sensitivity score under setting [3] is 20.1 DSS.
For the molecule `CC(C)NC(=O)COc1cccc(-c2nc(Nc3ccc4[nH]ncc4c3)c3ccccc3n2)c1` [SLx-2119], the drug sensitivity score reads like this: under setting [1], 0 DSS; under setting [2], 0 DSS; under setting [3], 0 DSS.
Molecule `COC[C@H](NC(=O)c1cnc(C)s1)C(=O)N[C@@H](COC)C(=O)N[C@@H](Cc1ccccc1)C(=O)[C@@]1(C)CO1` [Oprozomib] registered a drug sensitivity score under setting [1] of 17.7 DSS, a drug sensitivity score under setting [2] of 16.5 DSS and a drug sensitivity score under setting [3] of 19 DSS.
As to `COc1cc2ncnc(Nc3ccc(F)c(Cl)c3)c2cc1OCCCN1CCOCC1` [Gefitinib], the drug sensitivity score was 3.6 DSS under setting [1], 6.6 DSS under setting [2] and 3.7 DSS under setting [3].
The like results for `Nc1ncnc2c1c(COc1cccc(Cl)c1)nn2C1CCOCC1` were, in that order, 0 DSS, 0.1 DSS and 0 DSS.
Regarding `CS(=O)(=O)N1CCc2c(-c3cnc(N)nc3)nc(N3CCOCC3)nc21`, the drug sensitivity score came out at 7 DSS under setting [1], 6.4 DSS under setting [2] and 4.2 DSS under setting [3].
Turning to `COCC1(CO)C(=O)C2CCN1CC2` (stereo unspecified) [APR-246], the drug sensitivity score reads like this: under setting [1], 0 DSS; under setting [2], 1.1 DSS; under setting [3], 2 DSS.
The molecule `COc1cc2c(NC3CCN(C(C)C)CC3)nc(C3CCCCC3)nc2cc1OCCCN1CCCC1` [UNC0638] gave a drug sensitivity score under setting [1] of 9.1 DSS, a drug sensitivity score under setting [2] of 6.5 DSS and a drug sensitivity score under setting [3] of 9.7 DSS.
On to `CCC1=C[C@@H]2CN(C1)Cc1c([nH]c3ccccc13)[C@@](C(=O)OC)(c1cc3c(cc1OC)N(C)[C@H]1[C@@](O)(C(=O)OC)[C@H](OC(C)=O)[C@]4(CC)C=CCN5CC[C@]31[C@@H]54)C2` [Vinorelbine], for which the drug sensitivity score was 19.3 DSS under setting [1], 19.5 DSS under setting [2] and 22.4 DSS under setting [3].
For the molecule `Cn1cnc2c(F)c(Nc3ccc(Br)cc3F)c(C(=O)NOCCO)cc21` [Binimetinib], the drug sensitivity score is, setting by setting: under setting [1], 11.9 DSS; under setting [2], 6.6 DSS; under setting [3], 6.6 DSS.
Turning to `COc1nc(N)nc2c1ncn2[C@@H]1O[C@H](CO)[C@@H](O)[C@@H]1O` [Nelarabine], the drug sensitivity score was found to be 0 DSS under setting [1], 0 DSS under setting [2] and 0 DSS under setting [3].
For `CC/C(=C(\c1ccc(O)cc1)c1ccc(OCCN(C)C)cc1)c1ccccc1` [4-hydroxytamoxifen], the drug sensitivity score is, setting by setting: under setting [1], 6.8 DSS; under setting [2], 5.4 DSS; under setting [3], 8.7 DSS.
As to `CC[C@H](C)C(=O)O[C@H]1C[C@@H](C)C=C2C=C[C@H](C)[C@H](CC[C@@H]3C[C@@H](O)CC(=O)O3)[C@H]21` [Lovastatin], the drug sensitivity score runs as follows: under setting [1], 0 DSS; under setting [3], 0 DSS.
As for `Cn1ncc(Cl)c1-c1cc(C(=O)N[C@H](CN)Cc2cccc(F)c2)sc1Cl` [Afuresertib], the drug sensitivity score runs as follows: under setting [1], 0 DSS; under setting [2], 2 DSS; under setting [3], 0 DSS.
Take `O=C(O)c1ccc(-c2c[nH]c3ncc(-c4ccccc4)cc23)cc1C1CCCC1`: the drug sensitivity score under setting [1] came to 1.9 DSS, the drug sensitivity score under setting [2] worked out at 3.3 DSS and the drug sensitivity score under setting [3] worked out at 3.4 DSS.
As to `COc1cc(C(=O)O)ccc1NC(=O)[C@@H]1N[C@@H](CC(C)(C)C)[C@](C#N)(c2ccc(Cl)cc2F)[C@H]1c1cccc(Cl)c1F` [Idasanutlin], the drug sensitivity score runs as follows: under setting [1], 0 DSS; under setting [2], 0.3 DSS; under setting [3], 0.9 DSS.
For the molecule `CC(C)(C#N)c1cc(Cn2cncn2)cc(C(C)(C)C#N)c1` [Anastrozole], the drug sensitivity score by setting is: under setting [1], 0 DSS; under setting [2], 0 DSS; under setting [3], 0 DSS.
`CCS(=O)(=O)N1CCN(c2ccc(Nc3ncc(C(N)=O)c(NC4CC4)n3)cc2)CC1` [Cerdulatinib] returned a drug sensitivity score under setting [1] of 7.8 DSS, a drug sensitivity score under setting [2] of 6.6 DSS and a drug sensitivity score under setting [3] of 9.3 DSS.
The corresponding values for `Cn1cc(C2=Nc3cc(NC(=O)C(N)C4CCCCC4)cc4c3C2=CNNC4=O)cn1` (stereo unspecified) are 8.3 DSS, 8.3 DSS and 10.7 DSS.
On to `N#CCNC(=O)c1ccc(-c2ccnc(Nc3ccc(N4CCOCC4)cc3)n2)cc1` [Momelotinib], for which the drug sensitivity score reads like this: under setting [1], 3.8 DSS; under setting [2], 2.1 DSS; under setting [3], 1.9 DSS.
Regarding `Cn1c(=O)c(F)c(Nc2ccc(I)cc2F)c2c(=O)n(C[C@@H](O)CO)cnc21` [TAK-733], the drug sensitivity score stood at 21.7 DSS under setting [1], 12.2 DSS under setting [2] and 12 DSS under setting [3].
The like results for `CC[C@@]1(O)C(=O)OCc2c1cc1n(c2=O)Cc2cc3ccccc3nc2-1` [Camptothecin] were, in that order, 18.4 DSS, 10.3 DSS and 12.6 DSS.
The like results for `O=C(NOCC1CC1)c1ccc(F)c(F)c1Nc1ccc(I)cc1Cl` were, in that order, 16.4 DSS, 7.4 DSS and 10.5 DSS.
For the molecule `CC[C@H](CC#N)OC(=O)N[C@@H](C)c1cccc(NC(=O)Nc2ccc(-c3cnco3)c(OC)c2)c1` [AVN944], the drug sensitivity score reads like this: under setting [1], 13.4 DSS; under setting [3], 12.3 DSS.
As to `Nc1nc(Nc2ccc3c(c2)CC[C@@H](N2CCCC2)CC3)nn1-c1cc2c(nn1)-c1ccccc1CCC2` [BGB324], the drug sensitivity score amounted to 9 DSS under setting [1], 5.9 DSS under setting [2] and 9.6 DSS under setting [3].
The like results for `COc1cccc(OCCCN)c1-c1cc(Nc2cnc(C#N)cn2)n[nH]1` [Prexasertib] were, in that order, 29.1 DSS, 26.2 DSS and 28.1 DSS.
The corresponding values for `CCN(CC)Cc1ccc2cc(COC(=O)Nc3ccc(C(=O)NO)cc3)ccc2c1` [Givinostat] are 6.6 DSS, 7.3 DSS and 6.7 DSS.
On to `O=C1CN2Cc3c(ccc(Cl)c3Cl)N=C2N1` [Anagrelide], for which the drug sensitivity score reads like this: under setting [1], 0 DSS; under setting [2], 0 DSS; under setting [3], 0 DSS.
`Clc1ccccc1C(c1ccccc1)(c1ccccc1)n1cccn1` [TRAM-34] yielded a drug sensitivity score under setting [1] of 0 DSS, a drug sensitivity score under setting [2] of 0 DSS and a drug sensitivity score under setting [3] of 1.3 DSS.
With `CC[C@H](NC(=O)[C@H](C)NC)C(=O)N1C[C@@H](O)C[C@H]1Cc1c(-c2[nH]c3cc(F)ccc3c2C[C@@H]2C[C@H](O)CN2C(=O)[C@H](CC)NC(=O)[C@H](C)NC)[nH]c2cc(F)ccc12` [Birinapant], the drug sensitivity score reads like this: under setting [1], 0 DSS; under setting [2], 0 DSS; under setting [3], 0 DSS.
